Experiments:
Type in all cases: physicochemical
[1] = Release kinetics of encapsulated carboxyfluorescein by spectrofluorimetry; conditions: compared with encapsulation in egg yolk phosphatidylcholine; 25° C., Tris buffer pH 7.4, 4 h
Description: The encapsulation capacity of the various compounds is determined by spectrofluorimetry using a fluorescent probe: 5 (6)-carboxyfluorescein. The release of this fluorescent label from the vesicles prepared according to standardized methods is measured.
This study requires the preparation of a Tris buffer (15 mM and 150 mM NaCl) at pH 7.4, and also of a 120 mM carboxyfluorescein solution, also at pH 7.4.
The compounds studied are weighed out (2.5 mg/ml) and are dissolved in a minimum amount of methanol. The solvent is evaporated off under reduced pressure in a rotary evaporator and the film thus obtained is dried with a stream of nitrogen. […]
The fluorescence measurements were carried out using a Jobin-Yvon spectrofluorimeter (spectrofluoromax 2), equipped with a 150 W xenon lamp. […] The samples were analyzed at an excitation wavelength of 480 nm, and an emission wavelength of 530 nm for 4 hours. […]
For each measurement, the initial fluorescence intensity (F0) is determined 30 seconds after the column filtration. The release is studied over a period of 4 h and the fluorescence intensity (Ft) is measured at regular intervals. The maximum fluorescence intensity (Fmax), which corresponds to 100% release, is obtained after tubular vesicle lysis obtained by the addition of Triton X100 (10% v/v). […]

[2] = Phase transition temperature by polarization spectrofluorimetry (DPH probe) and light scattering; conditions: polarization of fluorescent probe DPH
Description: (§1) The size and the mechanical stability over time of the particles obtained in the solution were measured after dynamic light diffraction filtration (High Performance Particle Sizer, Malvern). The nature of the particles obtained was studied by transmission electron microscopy after negative staining of the sample or after freeze-fracture. The critical aggregation concentration of these surfactants was determined by tensiometry or by spectrofluorimetry using the fluorescent label method. Furthermore, the Wilhelmy tensiometry technique made it possible to determine the maximum surface tensions and the area of the polar head at the water-air interface (FIG. 8). […] In order to cause this value to decrease or increase, it is necessary to, respectively, increase or decrease the length of the hydrocarbon-based chains. The phase transition temperature of these surfactants was determined by polarization spectrofluorimetry and by light scattering (FIG. 9).
With R=C17H35 (derivative A1). The phase transition temperature was measured via detection of the polarization of a fluorescent probe, DPH, by spectrofluorimetry: Tm=54° C.

[3] = Particle size by dynamic light diffraction / photon correlation spectroscopy (Malvern HPPS)
Description: (§2) The size and the mechanical stability over time of the particles obtained in the solution were measured after filtration by dynamic light diffraction (High Performance Particle Sizer, Malvern). The nature of the particles obtained was studied by transmission electron microscopy after negative staining of the sample or after freeze-fracture (FIG. 4).
The size and the mechanical stability over time of the particles obtained in the solution were measured after dynamic light diffraction filtration (High Performance Particle Sizer, Malvern). The nature of the particles obtained was studied by transmission electron microscopy after negative staining of the sample or after freeze-fracture. The critical aggregation concentration of these surfactants was determined by tensiometry or by spectrofluorimetry using the fluorescent label method. […] The phase transition temperature of these surfactants was determined by polarization spectrofluorimetry and by light scattering (FIG. 9).
The size distribution of the particles was measured by photon correlation spectroscopy of light of samples diluted in water using a Malvern HPPS/NIBS device equipped with a 3 mW He/Ne laser and a 288-channel correlator equipped with an avalanche of photodiodes. […]

[4] = Mechanical stability over time of the particles (particle size on storage)
Description: as §2, §1

[5] = Shape and size of tubular vesicles from transmission electron micrographs (negative staining, freeze-fracture)
Description: as §2
The freeze-fracture analyses confirmed the formation of these tubular vesicles and their morphological characteristics, namely the presence of an inner aqueous cavity isolated from the outside medium (FIG. 5).
The freeze-fracture analyses confirmed the formation of these tubular vesicles and their morphological characteristics, i.e. the presence of an inner aqueous cavity isolated from the outside medium.

| release kinetics of encapsulated carboxyfluorescein [1] | phase transition temperature Tm [2] | mean hydrodynamic diameter of the tubular vesicles ([3]; tubular vesicles from lipid dispersed in water at 2.5 mg.ml^-1, measured by light diffraction) | IP ([3]; tubular vesicles, light diffraction, printed with the mean hydrodynamic diameter) | average cross section of the tubular vesicles [5] | average length of the tubular vesicles [5] | mechanical stability of the liposomes formed in water ([4]; liposomes with conventional structures) | Compound | change in particle size on storage ([4]; aqueous dispersion of tubular vesicles) |
| --- | --- | --- | --- | --- | --- | --- | --- | --- |
| slower release kinetics | 54 °C | 132 nm | 0.35 | 38 nm | 247 nm | – | CCCCCCCCCCCCCCCCCNC(=O)OCC(CNC(=O)CCSCCC(=O)NC(CO)(CO)CO)OC(=O)NCCCCCCCCCCCCCCCCC (centres unmarked) [A1] | no change in particle size is observed after one year of storage |
| – | – | – | – | – | – | only a few hours | CCCCCCCCCCCCCCCCCC(=O)OCC(CNC(=O)CCSCCC(=O)NC(CO)(CO)CO)OC(=O)CCCCCCCCCCCCCCCCC (centres unmarked) [B, reference compound] | – |
